System: papillomata
Test: Anti-cancer activity: mouse skin papilloma test (7,12-dimethylbenzanthracene / croton oil induced)
Type: in vivo, mouse (ICR strain, female)
Details: administered orally as 20 mg/ml solution in groundnut oil, 10 times for 14 days; total diameter on the 14th day vs. prior to administration
Procedure: A mouse (ICR strain, female, 50 days age) was shaved at the back of neck (to the extent of 5 cm^2). 7,12-Dimethylbenzo-[2]-anthracene was dissolved in acetone to give-75 mg /100 ml. solution. The so prepared solution was applied to the mouse on the 60th day of age and further on the 75th day of aqe in the amount of 0.2 ml per mouse.
Croton oil was dissolved in acetone to give 250 mg/ 100 ml solution, and the so prepared solution was applied to the mouse in the amount of 0.2 ml per mouse,-twice a week until the treatment was started. When 3 - 7 papillomata (diamether of 3 - 8 mm for each, and total diameter of 30 - 60 mm ) were produced for a mouse, the treatment was started.
The compound to be tested (test compound) was dissolved in groundnut oil to give 20' mg /ml solution, and administered orally to the mouse. The solution was administered 10 times for 14 days (once a day), and the diameters of the papillomata were measured on the 14th day to determine the total diameter for each mouse. Ratio of increase or decrease of the papillomata was calculated from the total diameter on the 14th day and the total diameter measured prior to the starting of administration of the test compound. This value was adopted' for evaluating the anti-cancer activity.

Compound | Ratio of increase or decrease of papillomas(%)
CC(C)=CCCC(C)=CCCC(C)=CCCC(C)=CC=CC(C)=CC(=O)O [(1), 3,7,11,15,19-pentamethyl-2,4,6,10,14,18-eicosahexa-enoic acid] | −24.0
CC(C)=CCCC(C)CCCC(C)=CC=CC(C)=CC(=O)O (stereo not drawn) [(2), 3,7,11,15-tetramethyl-2,4,6,14-hexadecatetraenoic acid] | −19.5
CCOC(=O)C=C(C)C=CC=C(C)CCCC(C)CCC=C(C)C (stereo not drawn) [(3), ethyl 3,7,11,15-tetramethyl-2,4,6,14-hexadecatetra-enoate] | −10.2
CC(C)=CCCC(C)=CC=CC(C)=CC=CC(C)=CC(=O)O [(4), 3,7,11,15-tetramethyl-2,4,6,8,10,14-hexadecahexaeno-ic acid] | −26.3
CC(C)=CCCC(C)=CCCC(C)=CC=CC(C)=CC(N)=O [(5), 3,7,11,15-tetramethyl-2,4,6,10,14-hexadecapentaeno-amide] | −25.5
CCOC(=O)C=C(C)C=CC=C(C)CCC=C(C)CCC=C(C)C [(6), ethyl 3,7,11,15-tetramethyl-2,4,6,10,14-hexadeca-pentaenoate] | −17.5
CC(=O)C=CC=C(C)CCC=C(C)CCC=C(C)CCC=C(C)C [(7), 6,10,14,18-tetramethyl-3,5,9,13,17-nonadecapentaen-2-on] | −12.7
CC(C)=CCCC(C)=CCCC(C)=CCCC(C)=CC(=O)O [(8), 3,7,11,15-tetramethyl-2,6,10,14-hexadecatetraenoic acid] | −6.5
CC(=O)CCC=C(C)CCC=C(C)CCC=C(C)CCC=C(C)C [(9), 6,10,14,18-tetramethyl-5,9,13,17-nonadecatetraen-2-on] | −8.2
